The assay concerns P388 leukemia ip, CD2F1 mice, survival T/C. The experiment in a line: NCI In Vivo Anticancer Drug Screen. Data for tumor model P388 Leukemia (intraperitoneal) in CD2F1 (CDF1) mice. The conditions noted are these: endpoint: median survival time, higher = longer survival. In outline:
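Mice carrying the transplanted tumor received test compound or vehicle. Survival was recorded in each group, and the value is the treated-group measurement divided by that of the vehicle-treated control group.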

Setting [1] is: dose: 50.0 mg/kg/injection, schedule: Q01DX009 (ip), vehicle: saline with Tween-80.
Where [2] appears, read: dose: 100.0 mg/kg/injection, schedule: Q01DX009 (ip), vehicle: saline with Tween-80.
[3] abbreviates: dose: 200.0 mg/kg/injection, schedule: Q01DX009 (ip), vehicle: saline with Tween-80.
The mark [4] stands for this setting: dose: 100.0 mg/kg/injection, schedule: Q01DX001 (ip), vehicle: Klucel (hydroxypropylcellulose) (HPC).
Where [5] appears, read: dose: 200.0 mg/kg/injection, schedule: Q01DX001 (ip), vehicle: Klucel (hydroxypropylcellulose) (HPC).
The mark [6] stands for this setting: dose: 12.5 mg/kg/injection, schedule: Q01DX009 (ip), vehicle: saline with Tween-80.
The mark [7] stands for this setting: dose: 25.0 mg/kg/injection, schedule: Q01DX009 (ip), vehicle: saline with Tween-80.

Values joined by “and” are separate entries in the source; they are usually repeats but may differ in a detail not shown here. Identical values can stand only once. Toxic doses and inconclusive results are not listed.

Take `CC1CCCC(CC2CCCC[N-]2)[N-]1.CC1CCCC(CC2CCCC[N-]2)[N-]1.[Ni+2].[O-][Cl+3]([O-])([O-])O` (stereo not given): the T/C (dose: 25.0 mg/kg/injection, schedule: Q01DX001 (ip), vehicle: saline) was 95 % of control; the T/C (dose: 50.0 mg/kg/injection, schedule: Q01DX001 (ip), vehicle: saline) is 94 % of control; the T/C (dose: 100.0 mg/kg/injection, schedule: Q01DX001 (ip), vehicle: saline) was 108 % of control and 95 % of control.

As for `CC(NC(=O)OCc1ccccc1)C(=O)Oc1ccccc1[N+](=O)[O-]` (stereo not given), the T/C runs as follows: under setting [1], 96 % of control; under setting [2], 103 % of control; under setting [3], 105 % of control.

For the compound `CC(C)(C)[Si](C)(C)OC(=O)Nc1ccc(N(CCCl)CCCl)cc1`, the T/C (dose: 0.05 mg/kg/injection, schedule: Q01DX009 (ip), vehicle: saline with Tween-80) was 122 % of control; the T/C (dose: 0.07 mg/kg/injection, schedule: Q01DX009 (ip), vehicle: saline with Tween-80) was 105 % of control; the T/C (dose: 0.11 mg/kg/injection, schedule: Q01DX009 (ip), vehicle: saline with Tween-80) is 118 % of control; the T/C (dose: 0.16 mg/kg/injection, schedule: Q01DX009 (ip), vehicle: saline with Tween-80) was 123 % of control; the T/C (dose: 5.0 mg/kg/injection, schedule: Q04DX003 (ip), vehicle: distilled water + Tween-80) is 153 % of control and 165 % of control; the T/C (dose: 10.0 mg/kg/injection, schedule: Q04DX003 (ip), vehicle: distilled water + Tween-80) was 158 % of control and 161 % of control and 203 % of control. The T/C was 100 % of control (dose: 40.0 mg/kg/injection, schedule: Q04DX003 (ip), vehicle: distilled water + Tween-80); 95 % of control (dose: 1.5 micrograms/kg/injection, schedule: Q01DX009 (ip), vehicle: saline); 97 % of control (dose: 3.1 micrograms/kg/injection, schedule: Q01DX009 (ip), vehicle: saline); 102 % of control (dose: 6.2 micrograms/kg/injection, schedule: Q01DX009 (ip), vehicle: saline); 104 % of control (dose: 12.5 micrograms/kg/injection, schedule: Q01DX009 (ip), vehicle: saline); 94 % of control (dose: 25.0 micrograms/kg/injection, schedule: Q01DX009 (ip), vehicle: saline). Besides, the T/C (dose: 50.0 micrograms/kg/injection, schedule: Q01DX009 (ip), vehicle: saline) is 110 % of control.

Consider `C[As](C)SCC(NC(=O)CCC(N)C(=O)O)C(=O)NCC(=O)O` (stereo not given), for which the T/C is, setting by setting: (dose: 12.5 mg/kg/injection, schedule: Q01DX009 (ip), vehicle: saline) 104 % of control; (dose: 25.0 mg/kg/injection, schedule: Q01DX009 (ip), vehicle: saline) 109 % of control; (dose: 200.0 mg/kg/injection, schedule: Q01DX009 (ip), vehicle: saline) 97 % of control.

Regarding `O=C1CSC(c2cccc(O)c2)N1c1nncs1` (stereo not given), the T/C was 114 % of control (dose: 60.0 mg/kg/injection, schedule: Q01DX005 (ip), vehicle: saline with Tween-80); 107 % of control (dose: 120.0 mg/kg/injection, schedule: Q01DX005 (ip), vehicle: saline with Tween-80); 95 % of control (dose: 240.0 mg/kg/injection, schedule: Q01DX005 (ip), vehicle: saline with Tween-80).

For `CCOP(=O)(O)OCc1ccccc1.[Ti]`, the T/C (dose: 50.0 mg/kg/injection, schedule: Q01DX001 (ip), vehicle: Klucel (hydroxypropylcellulose) (HPC)) is 90 % of control; the T/C under setting [4] was 97 % of control; the T/C under setting [5] was 93 % of control.

Regarding `O=C1C2C3C=CC(C2C(=O)N1CCl)C1C2C(=O)N(CCl)C(=O)C2C31` (stereo not given), the T/C (dose: 6.25 mg/kg/injection, schedule: Q01DX009 (ip), vehicle: saline with Tween-80) was 105 % of control; the T/C under setting [6] was 103 % of control; the T/C under setting [7] is 103 % of control; the T/C under setting [1] is 107 % of control and 114 % of control; the T/C under setting [2] was 107 % of control and 116 % of control; the T/C under setting [3] was 115 % of control.

Turning to `O=C1CCCc2ccc([N+](=O)[O-])cc21`, the T/C is 98 % of control (dose: 25.0 mg/kg/injection, schedule: Q01DX009 (ip), vehicle: suspension in saline); 98 % of control (dose: 50.0 mg/kg/injection, schedule: Q01DX009 (ip), vehicle: suspension in saline); 93 % of control (dose: 100.0 mg/kg/injection, schedule: Q01DX009 (ip), vehicle: suspension in saline); 93 % of control (dose: 200.0 mg/kg/injection, schedule: Q01DX009 (ip), vehicle: suspension in saline).

Turning to `[Br][Sn]([Br])([S]c1ccccn1)[S]c1ccccn1`, the T/C is 111 % of control under setting [6]; 103 % of control under setting [7]; 100 % of control and 95 % of control under setting [1]; 89 % of control under setting [3].

As for `CC(C)(C)/C(=N\Nc1ccc([N+](=O)[O-])cc1[N+](=O)[O-])c1ccccc1`, the T/C reads like this: (dose: 3.13 mg/kg/injection, schedule: Q01DX001 (ip), vehicle: saline with Tween-80) 91 % of control; (dose: 6.25 mg/kg/injection, schedule: Q01DX001 (ip), vehicle: saline with Tween-80) 116 % of control; (dose: 12.5 mg/kg/injection, schedule: Q01DX001 (ip), vehicle: saline with Tween-80) 95 % of control.

On to `Cc1cc2nc(CN)[nH]c2cc1C`, for which the T/C reads like this: (dose: 50.0 mg/kg/injection, schedule: Q04DX003 (ip), vehicle: saline) 100 % of control; (dose: 100.0 mg/kg/injection, schedule: Q04DX003 (ip), vehicle: saline) 100 % of control; (dose: 200.0 mg/kg/injection, schedule: Q04DX003 (ip), vehicle: saline) 95 % of control.

As for `Nc1nc2nn(Cc3ccc(Cl)c(Cl)c3)c(-c3ccc(Cl)c(Cl)c3)c2c(=O)[nH]1`, the T/C is, setting by setting: (dose: 100.0 mg/kg/injection, schedule: Q01DX001 (ip), vehicle: saline with Tween-80) 91 % of control; (dose: 200.0 mg/kg/injection, schedule: Q01DX001 (ip), vehicle: saline with Tween-80) 97 % of control; (dose: 400.0 mg/kg/injection, schedule: Q01DX001 (ip), vehicle: saline with Tween-80) 88 % of control.

In the case of `CCCC1CCCCN1C` (stereo not given), the T/C by setting is: (dose: 3.12 mg/kg/injection, schedule: Q01DX005 (ip), vehicle: saline with Tween-80) 105 % of control; (dose: 6.25 mg/kg/injection, schedule: Q01DX005 (ip), vehicle: saline with Tween-80) 105 % of control; (dose: 12.5 mg/kg/injection, schedule: Q01DX005 (ip), vehicle: saline with Tween-80) 108 % of control; (dose: 25.0 mg/kg/injection, schedule: Q01DX005 (ip), vehicle: saline with Tween-80) 105 % of control.

With `O=C(CCCNC(=O)OCc1ccccc1)OCc1ccc2c(c1)C(=O)c1ccccc1C2=O`, the T/C reads like this: under setting [4], 89 % of control; under setting [5], 88 % of control; (dose: 400.0 mg/kg/injection, schedule: Q01DX001 (ip), vehicle: Klucel (hydroxypropylcellulose) (HPC)) 86 % of control.

Regarding `COC(=O)c1nc(SC)[nH]c1CC#N`, the T/C is 108 % of control (dose: 100.0 mg/kg/injection, schedule: Q04DX002 (ip), vehicle: saline with Tween-80); 98 % of control (dose: 200.0 mg/kg/injection, schedule: Q04DX002 (ip), vehicle: saline with Tween-80); 99 % of control (dose: 400.0 mg/kg/injection, schedule: Q04DX002 (ip), vehicle: saline with Tween-80).

On to `C=C(C)Cn1ccn(C)c1=S`, for which the T/C (dose: 100.0 mg/kg/injection, schedule: Q04DX003 (ip), vehicle: saline with Tween-80) was 96 % of control; the T/C (dose: 200.0 mg/kg/injection, schedule: Q04DX003 (ip), vehicle: saline with Tween-80) is 98 % of control; the T/C (dose: 400.0 mg/kg/injection, schedule: Q04DX003 (ip), vehicle: saline with Tween-80) is 102 % of control.

On to `CC(C)(Cl)C1OC(C(C)(C)Cl)OC(C(C)(C)Cl)O1` (stereo not given), for which the T/C under setting [2] is 91 % of control; the T/C under setting [3] was 94 % of control; the T/C (dose: 400.0 mg/kg/injection, schedule: Q01DX009 (ip), vehicle: saline with Tween-80) was 103 % of control.

Turning to `CCN(CCO)CC(O)Cn1cnc2ncnc(N)c21` (stereo not given) (tested in a mixture with another compound), the T/C is 97 % of control (dose: 60.0 mg/kg/injection, schedule: Q01DX005 (ip), vehicle: Klucel (hydroxypropylcellulose) (HPC)); 94 % of control (dose: 120.0 mg/kg/injection, schedule: Q01DX005 (ip), vehicle: Klucel (hydroxypropylcellulose) (HPC)); 95 % of control (dose: 240.0 mg/kg/injection, schedule: Q01DX005 (ip), vehicle: Klucel (hydroxypropylcellulose) (HPC)).

These data come from PubChem BioAssay AID330 (DTP/NCI, 2004).
